Molecular target: human DGAT2 (hDGAT2) (Homo sapiens (Human), UniProt Q96PD7)
Experiment: DGAT2 enzymatic activity assay (13C18-triolein formation, LC/MS/MS)
Format: biochemical
Details: hDGAT2 Sf-9 membrane prep, 25 μM diolein, 5 μM 13C oleoyl-CoA; read-out: Human DGAT2 IC50
Protocol: Sf-9 insect cells were maintained in Grace's insect cell culture medium with 10% heated-inactivated fetal bovine serum, 1% Pluronic F-68 and 0.14 μg/ml Kanamycine sulfate at 27° C. in a shaker incubator. After infection with untagged baculovirus expressing human DGAT2 (hDGAT2) at multiplicity of infection (MOI) 3 for 48 hours, cells were harvested. Cell pellets were suspended in buffer containing 10 mM Tris-HCl pH 7.5, 1 mM EDTA, 250 mM sucrose and Complete Protease Inhibitor Cocktail (Sigma Aldrich), and sonicated on ice. Cell debris were removed by centrifugation at 2000×g for 15 minutes. Membrane fractions were isolated by ultracentrifugation (100,000×g), resuspended in the same buffer, and frozen (−80° C.) for later use. The protein concentration was determined with the Pierce™ BCA Protein Assay Kit (Thermo Fisher Scientific). Expression of protein levels was analyzed by immunoblotting with rabbit anti-DGAT2 antibody (Abcam, ab102831) and donkey anti-rabbit IgG H&L Alexa Fluor® 647 (Abcam, ab150075) followed by detection using Typhoon FLA9000 (GE Healthcare).
LC/MS/MS analyses were performed using Thermal Fisher's LX4-TSQ Vantage system. This system consists of an Agilent binary high-performance liquid chromatography (HPLC) pumps and a TSQ Vantage triple quadrupole MS/MS instrument. For each sample, 2 μL samples from the top organic layer of in-plate liquid-liquid extraction were injected onto a Thermo Betabasic C4 column (2.1 mm×20 mm, 5 μm particle size). The samples were then eluted using the following conditions; mobile phase: Isopropanol:acetonitrile/10 mM ammonium formate=50/35/15 (v/v/v), flow rate: 0.8 mL/min, temperature: 25° C. Data was acquired in positive mode using a heated electrospray ionization (HESI) interface. The operational parameters for the TSQ Vantage MS/MS instrument were a spray voltage of 3000 V, capillary temperature of 280° C., vaporizer temperature 400° C., sheath gas 45 arbitrary unit, Aux gas 10 arbitrary units, S-lens 165 and collision gas 1.0 mTorr. […] (SRM) chromatograms of ^13C18-triolein (Q1: 920.8>Q3:621.3) and internal standard ^13C21-triolein (Q1: 923.8>Q3:617.3) were collected for 33 sec. The peak area was integrated by Xcalibur Quan software. The ratio between the ^13C18triolein generated in the reaction and spiked in internal standard ^13C21-triolein was used to generate percentage inhibition and IC50 values. Compound percentage inhibition was calculated by the following formula: Inhibition %=1-[(compound response−low control)/(high control−low control)]×100%. Potent compounds were titrated and IC50 were calculated by 4 parameter sigmoidal curve fitting formula.
DGAT2 activity was determined by measuring the amount of enzymatic product ^13C18-triolein (^13C-1,2,3-Tri(cis-9-octadecenoyl)glycerol) using the membrane prep mentioned above. The assay was carried out in ABgene 384-well assay plates in a final volume of 25 μL at rt. The assay mixture contained the following: assay buffer (100 mM Tris·Cl, pH 7.0, 20 mM MgCl2, 5% ethanol), 25 μM of diolein, 5 μM of ^13C oleoyl-CoA and 8 ng/μL of DGAT2 membrane.

human DGAT2 (hDGAT2), sequence (Q96PD7 whole entry): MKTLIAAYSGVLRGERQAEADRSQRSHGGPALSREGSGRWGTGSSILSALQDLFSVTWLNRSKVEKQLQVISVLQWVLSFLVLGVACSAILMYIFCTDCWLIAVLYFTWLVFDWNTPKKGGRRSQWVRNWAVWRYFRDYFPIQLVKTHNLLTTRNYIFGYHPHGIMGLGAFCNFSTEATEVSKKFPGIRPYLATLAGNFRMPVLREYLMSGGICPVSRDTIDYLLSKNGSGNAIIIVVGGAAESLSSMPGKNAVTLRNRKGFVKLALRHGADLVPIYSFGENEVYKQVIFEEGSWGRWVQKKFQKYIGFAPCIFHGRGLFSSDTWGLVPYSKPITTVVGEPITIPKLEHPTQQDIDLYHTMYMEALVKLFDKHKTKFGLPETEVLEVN

| SMILES | IC50 [nM] |
| --- | --- |
| CC1(NC(=O)c2cnc3c(-c4cccc(OC(F)F)c4)nn(C(C)(C)C(C)(C)O)c3c2)CS(=O)(=O)C1 [Example 129, 3-(3-(difluoromethoxy)phenyl)-1-(3-hydroxy-2,3-dimethylbutan-2-yl)-N-(3-methyl-1,1-dioxidothietan-3-yl)-1H-pyrazolo[4,3-b]pyridine-6-carboxamide] | 97 |
| CN1CCC(n2nc(-c3cccc(OC(F)F)c3)c3ncc(C(=O)NC4(C)CS(=O)(=O)C4)cc32)CC1 [Example 134, 3-(3-(Difluoromethoxy)phenyl)-N-(3-methyl-1,1-dioxidothietan-3-yl)-1-(1-methylpiperidin-4-yl)-1H-pyrazolo[4,3-b]pyridine-6-carboxamide] | 33 |
| CC(C)n1nc(-c2cccc(OC(F)F)c2)c2ncc(C(=O)NC(C)(C)C(C)O)cc21 (single isomer, unassigned) [Example 46b, 3-(3-(difluoromethoxy)phenyl)-N-(3-hydroxy-2-methylbutan-2-yl)-1-isopropyl-1H-pyrazolo[4,3-b]pyridine-6-carboxamide] | 13 |
| CC(C)n1nc(-c2cccc(OC(F)F)c2)c2ncc(C(=O)NC3(C)CS(=O)(=O)C3)cc21 [Example 25, 3-[3-(difluoromethoxy)phenyl]-1-isopropyl-N-(3-methyl-1,1-dioxidothietan-3-yl)-1H-pyrazolo[4,3-b]pyridine-6-carboxamide] | 4.7 |
| CC1(NC(=O)c2cnc3c(-c4cccc(OC(F)F)c4)nn(C4CCOC(C)(C)C4)c3c2)CS(=O)(=O)C1 (single isomer, unassigned) [Example 77a, 3-(3-(difluoromethoxy)phenyl)-1-(2,2-dimethyltetrahydro-2H-pyran-4-yl)-N-(3-methyl-1,1-dioxidothietan-3-yl)-1H-pyrazolo[4,3-b]pyridine-6-carboxamide] | 140 |
| C[C@]1(NC(=O)c2cnc3c(-c4cccc(OC(F)F)c4)nn(C4CCCOC4)c3c2)CCS(=O)(=O)C1 (single isomer, unassigned) [Example 62a] | 59 |
| CC(O)C(C)NC(=O)c1cnc2c(-c3cccc(OC(F)F)c3)nn(C(C)C)c2c1 (single isomer, unassigned) [Example 45b, 3-(3-(difluoromethoxy)phenyl)-N-(3-hydroxybutan-2-yl)-1-isopropyl-1H-pyrazolo[4,3-b]pyridine-6-carboxamide] | 520 |
| C[C@]1(NC(=O)c2cnc3c(-c4cccc(OC(F)F)c4)nn(C4CCOC4)c3c2)CCS(=O)(=O)C1 (single isomer, unassigned) [Example 60b] | 37 |
| CC(C)n1nc(-c2cccc(OC(F)F)c2)c2ncc(C(=O)NC3(C(C)(C)O)CCOC3)cc21 (single isomer, unassigned) [Example 47a, 3-(3-(difluoromethoxy)phenyl)-N-(3-(2-hydroxypropan-2-yl)tetrahydrofuran-3-yl)-1-isopropyl-1H-pyrazolo[4,3-b]pyridine-6-carboxamide] | 1410 |

More lines, now with the values ahead:

| IC50 [nM] | SMILES |
| --- | --- |
| 19 | CC(C)n1nc(-c2cccc(OC(F)F)c2)c2ncc(C(=O)NC3(CO)CCOC3)cc21 (single isomer, unassigned) [Example 39a, 3-[3-(difluoromethoxy)phenyl]-N-[3-(hydroxymethyl)tetrahydrofuran-3-yl]-1-isopropyl-pyrazolo[4,3-b]pyridine-6-carboxamide] |
| 50 | C[C@]1(NC(=O)c2cnc3c(-c4cccc(OC(F)F)c4)cn(-c4ccc(F)cc4)c3n2)CCS(=O)(=O)C1 [Example 24, (S)-7-(3-(difluoromethoxy)phenyl)-5-(4-fluorophenyl)-N-(3-methyl-1,1-dioxidotetrahydrothiophen-3-yl)-5H-pyrrolo[2,3-b]pyrazine-3-carboxamide] |
| 1730 | CC(O)C(C)n1nc(-c2cccc(OC(F)F)c2)c2ncc(C(=O)NC3(C)CS(=O)(=O)C3)cc21 (single isomer, unassigned) [Example 78a, 3-(3-(difluoromethoxy)phenyl)-1-(3-hydroxybutan-2-yl)-N-(3-methyl-1,1-dioxidothietan-3-yl)-1H-pyrazolo[4,3-b]pyridine-6-carboxamide] |
| 600 | C[C@]1(NC(=O)c2cnc3c(-c4cccc(OC(F)F)c4)nn(C4CCOC4)c3c2)CCS(=O)(=O)C1 (single isomer, unassigned) [Example 60a] |
| 74 | CC(C)n1nc(-c2cccc(OC(F)F)c2)c2ncc(C(=O)NC3(C(C)O)CCOCC3)cc21 (single isomer, unassigned) [Example 73b, 3-(3-(difluoromethoxy)phenyl)-N-(4-(1-hydroxyethyl)tetrahydro-2H-pyran-4-yl)-1-isopropyl-1H-pyrazolo[4,3-b]pyridine-6-carboxamide] |
| 90 | CC1(NC(=O)c2cnc3c(-c4cccc(OC(F)F)c4)nn(CC(O)C(F)(F)F)c3c2)CS(=O)(=O)C1 (single isomer, unassigned) [Example 67b, 3-(3-(difluoromethoxy)phenyl)-N-(3-methyl-1,1-dioxidothietan-3-yl)-1-(3,3,3-trifluoro-2-hydroxypropyl)-1H-pyrazolo[4,3-b]pyridine-6-carboxamide] |
| 45 | O=C(N[C@@H]1CCC[C@H]1N1CCOCC1)c1cnc2c(-c3cccc(OC(F)F)c3)cn(-c3ncc(F)cn3)c2c1 [Example 7, 3-(3-(difluoromethoxy)phenyl)-1-(5-fluoropyrimidin-2-yl)-N-((1R,2R)-2-morpholinocyclopentyl)-1H-pyrrolo[3,2-b]pyridine-6-carboxamide] |
| 298 | CC(C)n1nc(-c2cccc(C3(O)CC3)c2)c2ncc(C(=O)NC3(C)CS(=O)(=O)C3)cc21 [Example 127, 3-(3-(1-Hydroxycyclopropyl)phenyl)-1-isopropyl-N-(3-methyl-1,1-dioxidothietan-3-yl)-1H-pyrazolo[4,3-b]pyridine-6-carboxamide] |
| 1.5 | CCC(C)n1nc(-c2cccc(OC(F)F)c2)c2ncc(C(=O)NC3(C)CS(=O)(=O)C3)cc21 (single isomer, unassigned) [Example 66b, 3-[3-(difluoromethoxy)phenyl]-N-(3-methyl-1,1-dioxo-thietan-3-yl)-1-sec-butyl-pyrazolo[4,3-b]pyridine-6-carboxamide] |

Same assay, conditions: table head without 'Human'; same membrane assay; read-out: DGAT2 IC50

| IC50 [nM] | SMILES |
| --- | --- |
| 11 | CC(n1nc(-c2cc(OC(F)F)ccc2F)c2ncc(C(=O)NC3(C)CS(=O)(=O)C3)cc21)C(C)(C)O (single isomer, unassigned) [Example 131a, 3-(5-(difluoromethoxy)-2-fluorophenyl)-1-(3-hydroxy-3-methylbutan-2-yl)-N-(3-methyl-1,1-dioxidothietan-3-yl)-1H-pyrazolo[4,3-b]pyridine-6-carboxamide] |
| 15 | CC(n1nc(-c2cc(OC(F)F)ncc2F)c2cnc(C(=O)NC3(C)CS(=O)(=O)C3)cc21)C(C)(C)O (single isomer, unassigned) [Example 133b, 3-(2-(difluoromethoxy)-5-fluoropyridin-4-yl)-1-(3-hydroxy-3-methylbutan-2-yl)-N-(3-methyl-1,1-dioxidothietan-3-yl)-1H-pyrazolo[4,3-c]pyridine-6-carboxamide] |
| 110 | CC(n1nc(-c2cc(OC(F)F)ccc2F)c2ncc(C(=O)NC3(C)CS(=O)(=O)C3)cc21)C(C)(C)O (single isomer, unassigned) [Example 131b, 3-(5-(difluoromethoxy)-2-fluorophenyl)-1-(3-hydroxy-3-methylbutan-2-yl)-N-(3-methyl-1,1-dioxidothietan-3-yl)-1H-pyrazolo[4,3-b]pyridine-6-carboxamide] |
| 80 | CC(n1nc(-c2cccc(OC(F)F)c2)c2ncc(C(=O)NC3(C)CS(=O)(=O)C3)cc21)C(C)(C)O (single isomer, unassigned) [Example 130b, 3-(3-(difluoromethoxy)phenyl)-1-(3-hydroxy-3-methylbutan-2-yl)-N-(3-methyl-1,1-dioxidothietan-3-yl)-1H-pyrazolo[4,3-b]pyridine-6-carboxamide] |

— patent US11787810B2, “Diacylglyceride O-acyltransferase 2 inhibitors” (Merck Sharp & Dohme Corp., priority 2020, dated 2023)
